Assays:
[1] = system: rat endothelin-induced MCA occlusion model; assay: Neuroprotective efficacy in the rat endothelin-induced MCA occlusion model (ET-1 model of stroke); format: in vivo; conditions: five minutes post-lesion, male Sprague Dawley rats, damage assessed three days post-lesion
Method: Neuroprotective efficacy of the compound (I) in the rat endothelin-induced MCA occlusion model
The compound (I) was dissolved in a polyoxyethylene-hydrogenated castor oil 60/ethanol (400mg/1 ml) solution and administered at 1 and 3 mg.kg^−1. All drugs and relevant control were administered in a volume of 2 ml. kg^−1. MCA occlusion by the endothelin method was performed on male Sprague Dawley rats (271- 324g) as described in U.S. Pat. No. 5,648,351. All drugs were infused through the i.v. catheter at 1 ml min^−1, five minutes post-lesion. The animals were sacrificed by cardiac infusion under barbiturate anaesthesia. Volume of lesion was calculated from measured areas of damage (as assessed three days post-lesion) using the Trapezoid Rule. Results are presented as volume (mm^3)±SEM. Statistical analysis was performed using ANOVA and post hoc Student-Newman-Keuls test, where p<0.05 was set as an acceptable level for significance.

[2] = Immunosuppressive activity (statement, no method described); conditions: stated in text without test details

For `COC1CC(/C=C(\C)C2OC(=O)C3CCCCN3C(=O)C(=O)C3(O)OC(C(OC)CC(C)C/C(C)=C/C(CC(C)=O)C(=O)CC(O)C2C)C(OC)CC3C)CCC1O` (stereo not drawn) [compound (I)], the “protection of the cortex (lesion volume) against vehicle” value ([1]; 1 mg.kg^-1 i.v., n=14) was 61%, the “protection of the cortex (lesion volume) against vehicle” value ([1]; 3 mg.kg^-1 i.v., n=9) was 42% and the immunosuppressive activity [2] was “no immunosuppressive activity”.
